Test results: patent US12263248B2, “Compounds and compositions for intracellular delivery of therapeutic agents” (ModernaTX, Inc., priority 2018, dated 2025)
Marks after values point to notes of the source that are not given here.

What was measured:
sC5b-9 = test: Complement activation in vitro (sC5b-9 levels); format: cell-based; settings: human cells contacted in vitro
Method: Complement activation assists in the clearance of pathogens from an organism. As it is undesirable that a subject's body recognize a nanoparticle composition as a foreign invader, low complement system activation upon administration of such a composition is preferred. The complex sC5b-9 is a marker for the activation of the complement system. Thus, human cells were contacted in vitro with nanoparticle compositions according to Table 1A and were evaluated for sC5b-9 levels.

luciferase (Luc) mRNA [1] = test: Luc expression (total flux) after intramuscular administration; format: in vivo, mice; settings: for Total flux, 0.001 mpk Dose / Total flux, 0.01 mpk Dose / Total flux (p/s) 0.01 mpk Dose: 6 hours after intramuscular administration; for Total flux, 0.001 mpk Dose / Total flux, 0.01 mpk Dose: Luc mRNA and H10 mRNA; for Total flux (p/s) 0.01 mpk Dose: Table 5B; for Novel lipid/MC3 expression ratio, 6 hr. time point, i.m. Luc: intramuscular, relative to MC3 formulation; for i.m. Lipid/MC3 0.01 mpk, Luc, 6 h: Table 3B
Outline: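 Mice given a single intramuscular dose of lipid nanoparticle formulations carrying modified Luc mRNA, alone or with H10 mRNA, at 0.001 or 0.01 mpk total. Luciferase expression recorded as total flux.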

luciferase (Luc) mRNA [2] = test: Luc expression in liver, lung, spleen and femur 6 hours after intravenous administration; format: in vivo; settings: mice, 0.5 mpk; for Total Flux Femur / Total Flux Liver / Total Flux Lung / Total Flux Spleen: intravenous; for Flux in the spleen: i.v., in words
Outline: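 LNP-formulated mRNA given IV to mice (n=3) at 0.5 mpk; at 6 h, bioluminescence imaged ex vivo 15 min after IP D-luciferin (15 mg/mL, 200 μL), organs imaged within 25 min. Values are total flux by region of interest.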

luciferase mRNA = test: Luciferase expression after subcutaneous administration to mice; format: in vivo, female CD-1 mice; settings: for Novel lipid/MC3 expression ratio, 6 hr. time point, s.c. Luc 0.5 mpk / Novel lipid/MC3 expression ratio, s.c. Luc 0.5 mpk (AUC) / Lipid/MC3 AUC ratio / AUC (luciferase expression): 0.5 mpk; for Lipid/MC3 AUC ratio: luciferase; for AUC (luciferase expression): whole body BLI; for Novel lipid/MC3 ratio, s.c. Luc 6 hr.: relative to MC3, Table 3G
Outline: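 Female CD-1 mice given luciferase mRNA in lipid nanoparticle formulations subcutaneously at 0.5 mpk. Expression read by whole-body bioluminescence imaging at 3, 6 and 24 h, with ex vivo liver, spleen and injection-site luminescence at 24 h.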

hEPO mRNA = test: hEPO expression after intramuscular administration to mice; format: in vivo; settings: for Fold increase in hEPO concentration relative to MC3: mice, 0.01 mpk, 6 hr time point; for Novel lipid/MC3 expression ratio, 6 hr. time point, i.m. hEPO: relative to MC3 formulation; for Novel lipid/MC3 ratio, 6 hr. timepoint, i.m. hEPO: relative to MC3, Table 3G
Method: The expression of hEPO and cytokine induction in mice intravenously administered a nanoparticle composition at a dose of 0.5 mpk were measured at 3, 6, and 24 hours. […] The expression of hEPO in mice intramuscularly administered a nanoparticle composition from Table 1B at a dose of 0.01 mpk were measured at 3, 6, and 24 hours.
Blood collection and analysis for hEPO. Blood was collected from mice or rats via the tail vein and hEPO concentrations were determined using a hEPO ELISA assay.

| SMILES | Total Flux Liver (luciferase (Luc) mRNA [2]) | Total Flux Lung (luciferase (Luc) mRNA [2]) | Total Flux Spleen (luciferase (Luc) mRNA [2]) | Total flux (p/s) 0.01 mpk Dose (luciferase (Luc) mRNA [1]; 0.01 mpk) [p/s] | Novel lipid/MC3 expression ratio, 6 hr. time point, i.m. Luc (luciferase (Luc) mRNA [1]) | Novel lipid/MC3 expression ratio, 6 hr. time point, s.c. Luc 0.5 mpk (luciferase mRNA; relative to MC3) | Fold increase in hEPO concentration relative to MC3 (hEPO mRNA) | further results |
| --- | --- | --- | --- | --- | --- | --- | --- | --- |
| CCCCCCCC/C=C\COC(=O)CCCCCN(CCO)CCCCCC(=O)OC/C=C\CCCCCCCC [Compound 140, Di((Z)-undec-2-en-1-yl) 6,6′-((2-hydroxyethyl)azanediyl)dihexanoate] | 4.21E+05 | 2.14E+04 | 2.22E+05 | – | – | – | – | Fold increase in sC5b-9 levels versus saline (sC5b-9): 0.75; Total flux, 0.001 mpk Dose (luciferase (Luc) mRNA [1]): 2.03E+05 p/s; Total flux, 0.01 mpk Dose (luciferase (Luc) mRNA [1]; 0.01 mpk): 6.09E+05 p/s; Total Flux Femur (luciferase (Luc) mRNA [2]): 3.26E+04 |
| CCCC/C=C\CCC(CC/C=C\CCCC)OC(=O)CCCCCCCN(CCO)CCCCCCCC(=O)OCCCCCCCCC [Compound 60, (5Z,12Z)-Heptadeca-5,12-dien-9-yl 8-((2-hydroxyethyl)(8-(nonyloxy)-8-oxooctyl)amino)octanoate] | 1.54E+09 | 6.25E+06 | 7.12E+06 | 9.48E+07 | 2.93 | 1.72 | 11.2 | Novel lipid/MC3 expression ratio, 6 hr. time point, i.m. hEPO (hEPO mRNA): 11.2 |
| CCCCCCCCC(C)OC(=O)CCCCCN(CCO)CCCCCCCC(=O)OC(CCCCCCCC)CCCCCCCC (stereo not drawn) [Compound 122, Heptadecan-9-yl 8-((6-(decan-2-yloxy)-6-oxohexyl)(2-hydroxyethyl)amino)octanoate] | 2.63E+09 | 2.77E+07 | 1.56E+07 | 9.19E+07 | 2.84 | – | 10.7 | Novel lipid/MC3 expression ratio, s.c. Luc 0.5 mpk (AUC) (luciferase mRNA; relative to MC3): (AUC: 3.42); Lipid/MC3 AUC ratio (luciferase mRNA): 3.42; AUC (luciferase expression) (luciferase mRNA): 5.8576E+10 (p/s) * h; Novel lipid/MC3 ratio, s.c. Luc 6 hr. (luciferase mRNA): 4.12; Novel lipid/MC3 ratio, 6 hr. timepoint, i.m. hEPO (hEPO mRNA): 10.7; Novel lipid/MC3 expression ratio, 6 hr. time point, i.m. hEPO (hEPO mRNA): 10.7 |
| CCCCCCCCCOC(=O)CCCCCCCN(CCCCCCCC(=O)OC(CCCCCCCC)CCCCCCCC)CCCNC(=S)N(C)C [Compound 111, Heptadecan-9-yl 8-((3-(3,3-dimethylthioureido)propyl)(8-(nonyloxy)-8-oxooctyl)amino)octanoate] | 4.83E+09 | 2.57E+07 | 2.44E+08 | 1.58E+08 | 4.88 | 1.16 | 10.6 | i.m. Lipid/MC3 0.01 mpk, Luc, 6 h (luciferase (Luc) mRNA [1]; 0.01 mpk): 4.9; Novel lipid/MC3 expression ratio, 6 hr. time point, i.m. hEPO (hEPO mRNA): 10.6 |
| CCCCC/C=C\C/C=C\CCCCCCCCN(CCO)CCCCCCCC(=O)OC(CCCCCCCC)CCCCCCCC [Compound 6, Heptadecan-9-yl 8-((2-hydroxyethyl)((9Z,12Z)-octadeca-9,12-dien-1-yl)amino)octanoate] | 1.09E+09 | 4.30E+06 | 3.03E+07 | – | – | – | – | Fold increase in sC5b-9 levels versus saline (sC5b-9): 1.39; sC5b-9 levels relative to saline (sC5b-9; in words): somewhat increase; Total Flux Femur (luciferase (Luc) mRNA [2]): 2.15E+06 |
| CCCCC/C=C\C/C=C\CCCCCCCCN(CCO)CCCCCCCC(=O)OCCCCCCCCC [Compound 136, Nonyl 8-((2-hydroxyethyl)((9Z,12Z)-octadeca-9,12-dien-1-yl)amino)octanoate] | 1.34E+08 | 8.91E+05 | 2.77E+07 | – | – | – | – | Fold increase in sC5b-9 levels versus saline (sC5b-9): 0.69; Total Flux Femur (luciferase (Luc) mRNA [2]): 6.60E+05 |
| CCCCCCCCCOC(=O)CCCCCCCN(CCCCCCCC(=O)OC(CCCCCCCC)CCCCCCCC)CCCNC(C)=O [Compound 108, Heptadecan-9-yl 8-((3-acetamidopropyl)(8-(nonyloxy)-8-oxooctyl)amino)octanoate] | 4.63E+08 | 9.81E+06 | 7.82E+08 | 4.60E+08 | 14.2 | 0.22 | 3.7 | Luc expression upon intramuscular administration (luciferase (Luc) mRNA [1]; 0.01 mpk, in words): highest expression; i.m. Lipid/MC3 0.01 mpk, Luc, 6 h (luciferase (Luc) mRNA [1]; 0.01 mpk): 14.2; flux measured at 6 h relative to the MC3 formulation (luciferase (Luc) mRNA [1]; intramuscular administration (i.m.), in words): fourteen; Flux in the spleen (luciferase (Luc) mRNA [2]): highest |
| CCCCCCCCCOC(=O)CCCCCCCN(CCCCCCCC(=O)OC(CCCCCCCC)CCCCCCCC)CCCNC(=O)N(C)C [Compound 110, Heptadecan-9-yl 8-((3-(3,3-dimethylureido)propyl)(8-(nonyloxy)-8-oxooctyl)amino)octanoate] | 2.30E+08 | 5.76E+06 | 1.41E+08 | 1.21E+08 | 3.74 | – | 1.2 | Novel lipid/MC3 expression ratio, s.c. Luc 0.5 mpk (AUC) (luciferase mRNA; relative to MC3): (AUC: 0.76); Lipid/MC3 AUC ratio (luciferase mRNA): 0.76; AUC (luciferase expression) (luciferase mRNA): 1.2968E+10 (p/s) * h; Novel lipid/MC3 ratio, s.c. Luc 6 hr. (luciferase mRNA): 0.78; Novel lipid/MC3 ratio, 6 hr. timepoint, i.m. hEPO (hEPO mRNA): 1.2 |
| CCCCCCCCCOC(=O)CCCCCCCN(CCCCCCCC(=O)OC(CCCCCCCC)CCCCCCCC)CCCNC(=O)NC [Compound 112, Heptadecan-9-yl 8-((3-(3-methylureido)propyl)(8-(nonyloxy)-8-oxooctyl)amino)octanoate] | 1.48E+08 | 1.83E+06 | 2.75E+07 | 9.47E+07 | 2.93 | – | 1.6 | Novel lipid/MC3 expression ratio, s.c. Luc 0.5 mpk (AUC) (luciferase mRNA; relative to MC3): (AUC: 1.19); Lipid/MC3 AUC ratio (luciferase mRNA): 1.19; AUC (luciferase expression) (luciferase mRNA): 2.0339E+10 (p/s) * h; Novel lipid/MC3 ratio, s.c. Luc 6 hr. (luciferase mRNA): 1.33; Novel lipid/MC3 ratio, 6 hr. timepoint, i.m. hEPO (hEPO mRNA): 1.6 |
| CCCCCCCCCOC(=O)CCCCCCCN(CCCCCCCC(=O)OC(CCCCCCCC)CCCCCCCC)CCCNS(C)(=O)=O [Compound 109, Heptadecan-9-yl 8-((3-(methylsulfonamido)propyl)(8-(nonyloxy)-8-oxooctyl)amino)octanoate] | 8.17E+08 | 6.03E+06 | 4.81E+07 | 1.18E+08 | 3.65 | 0.49 | 5.3 | i.m. Lipid/MC3 0.01 mpk, Luc, 6 h (luciferase (Luc) mRNA [1]; 0.01 mpk): 3.6 |
| CCCCCCCCCN(CCCO)CCCCCCCC(=O)OC(CCCCCCCC)CCCCCCCC [Compound 7, Heptadecan-9-yl 8-((3-hydroxypropyl)(nonyl)amino)octanoate] | 2.49E+09 | 3.95E+07 | 4.83E+08 | – | – | 2.29 | – | Total flux, 0.001 mpk Dose (luciferase (Luc) mRNA [1]): 3.65E+06 p/s; Total flux, 0.01 mpk Dose (luciferase (Luc) mRNA [1]; 0.01 mpk): 7.48E+07 p/s; Novel lipid/MC3 expression ratio, 6 hr. time point, s.c. Luc 0.05 mpk (luciferase mRNA; 0.05 mpk, relative to MC3): 2.40; Flux in the spleen (luciferase (Luc) mRNA [2]): highest |
